Experimental data as given in PubChem BioAssay AID256 (DTP/NCI, 2004).
Inconclusive results and toxic doses are left out.

Tested on: CD2F1 mice, L1210 leukemia ip, survival T/C
Assay: NCI In Vivo Anticancer Drug Screen. Data for tumor model L1210 Leukemia (intraperitoneal) in CD2F1 (CDF1) mice
Conditions: higher = longer survival
How it was run: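 Each value reflects a quotient of treated over vehicle control outcomes in mice with a transplanted tumor.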

[1] = endpoint: mean survival time, dose: 12.5 mg/kg/injection, schedule: Q01DX009 (ip), vehicle: other
[2] = endpoint: mean survival time, dose: 25.0 mg/kg/injection, schedule: Q01DX009 (ip), vehicle: other
[3] = endpoint: mean survival time, dose: 50.0 mg/kg/injection, schedule: Q01DX009 (ip), vehicle: other
[4] = endpoint: mean survival time, dose: 100.0 mg/kg/injection, schedule: Q01DX009 (ip), vehicle: other
[5] = endpoint: mean survival time, dose: 200.0 mg/kg/injection, schedule: Q01DX009 (ip), vehicle: other
[6] = endpoint: mean survival time, dose: 100.0 mg/kg/injection, schedule: Q01DX009 (ip), vehicle: saline with Tween-80
[7] = endpoint: mean survival time, dose: 200.0 mg/kg/injection, schedule: Q01DX009 (ip), vehicle: saline with Tween-80
[8] = endpoint: mean survival time, dose: 400.0 mg/kg/injection, schedule: Q01DX009 (ip), vehicle: saline with Tween-80
[9] = endpoint: mean survival time, dose: 100.0 mg/kg/injection, schedule: Q04DX003 (ip), vehicle: saline with Tween-80
[10] = endpoint: mean survival time, dose: 200.0 mg/kg/injection, schedule: Q04DX003 (ip), vehicle: saline with Tween-80
[11] = endpoint: mean survival time, dose: 400.0 mg/kg/injection, schedule: Q04DX003 (ip), vehicle: saline with Tween-80
[12] = endpoint: mean survival time, dose: 50.0 mg/kg/injection, schedule: Q01DX009 (ip), vehicle: saline with Tween-80

N#CCCN(CCCN1CCOCC1)C(=S)Nc1cccc(C(F)(F)F)c1
T/C (endpoint: mean survival time, dose: 25.0 mg/kg/injection, schedule: Q04DX002 (ip), vehicle: saline with Tween-80): 104 % of control
T/C (endpoint: mean survival time, dose: 50.0 mg/kg/injection, schedule: Q04DX002 (ip), vehicle: saline with Tween-80): 98 % of control
T/C (endpoint: mean survival time, dose: 100.0 mg/kg/injection, schedule: Q04DX002 (ip), vehicle: saline with Tween-80): 106 % of control

O=C1OC(=O)C2CCCC1C2
T/C (endpoint: mean survival time, dose: 100.0 mg/kg/injection, schedule: Q01DX001 (ip), vehicle: saline): 105 % of control
T/C (endpoint: mean survival time, dose: 200.0 mg/kg/injection, schedule: Q01DX001 (ip), vehicle: saline): 105 % of control
T/C (endpoint: mean survival time, dose: 400.0 mg/kg/injection, schedule: Q01DX001 (ip), vehicle: saline): 100 % of control

COc1ccc(C(OC/C=C(\C)CCC=C(C)C)OC/C=C(\C)CCC=C(C)C)cc1
T/C [1]: 90 % of control
T/C [2]: 90 % of control
T/C [3]: 90 % of control
T/C [4]: 95 % of control
T/C [5]: 95 % of control

COc1cccc(CCNC(=O)CC#N)c1
T/C [6]: 97 % of control
T/C [7]: 98 % of control
T/C [8]: 101 % of control

O=NN(CCCl)C(=O)NC1OC(CO)C(O)C(O)C1O (configuration not stated)
T/C (endpoint: mean survival time, dose: 2.5 mg/kg/injection, schedule: Q01DX009 (ip), vehicle: saline): 215 % of control
T/C (endpoint: mean survival time, dose: 5.0 mg/kg/injection, schedule: Q01DX009 (ip), vehicle: saline): 176 % of control
T/C (endpoint: mean survival time, dose: 10.0 mg/kg/injection, schedule: Q04DX002 (ip), vehicle: saline): 243 % of control
T/C (endpoint: mean survival time, dose: 20.0 mg/kg/injection, schedule: Q04DX002 (ip), vehicle: saline): 121 % of control
T/C (endpoint: median survival time, dose: 1.8 mg/kg/injection, schedule: Q01DX009 (ip), vehicle: saline): 175 % of control
T/C (endpoint: median survival time, dose: 3.0 mg/kg/injection, schedule: Q01DX009 (ip), vehicle: saline): 175 % of control
T/C (endpoint: median survival time, dose: 13.89 mg/kg/injection, schedule: Q01DX009 (ip), vehicle: saline): 96 % of control

CC(=O)c1cccc(OCc2ccccc2)c1
T/C (endpoint: mean survival time, dose: 100.0 mg/kg/injection, schedule: Q04DX003 (ip), vehicle: other): 96 % of control
T/C (endpoint: mean survival time, dose: 200.0 mg/kg/injection, schedule: Q04DX003 (ip), vehicle: other): 96 % of control

COc1ccc(NC(=O)Oc2ccc(NC(C)=O)cc2)c(Cl)c1
T/C (endpoint: mean survival time, dose: 50.0 mg/kg/injection, schedule: Q01DX009 (ip), vehicle: Klucel (hydroxypropylcellulose) (HPC)): 100 % of control
T/C (endpoint: mean survival time, dose: 100.0 mg/kg/injection, schedule: Q01DX009 (ip), vehicle: Klucel (hydroxypropylcellulose) (HPC)): 100 % of control
T/C (endpoint: mean survival time, dose: 200.0 mg/kg/injection, schedule: Q01DX009 (ip), vehicle: Klucel (hydroxypropylcellulose) (HPC)): 107 % of control

CCCCN=C(Cl)C(Cl)(c1ccccc1)c1ccccc1
T/C (endpoint: mean survival time, dose: 100.0 mg/kg/injection, schedule: Q04DX002 (ip), vehicle: saline): 98 % of control
T/C (endpoint: mean survival time, dose: 200.0 mg/kg/injection, schedule: Q04DX002 (ip), vehicle: saline): 103 % of control
T/C (endpoint: mean survival time, dose: 400.0 mg/kg/injection, schedule: Q04DX002 (ip), vehicle: saline): 95 % of control

COc1ccc2occc2c1
T/C [9]: 94 % of control
T/C [10]: 94 % of control
T/C [11]: 91 % of control

C1CCC(C2CCCC[N-]2)[N-]C1.C1CCC(C2CCCC[N-]2)[N-]C1.O=N[O-].O=N[O-].[Ru+4] (configuration not stated)
T/C (endpoint: mean survival time, dose: 3.13 mg/kg/injection, schedule: Q04DX003 (ip), vehicle: distilled water + Tween-80): 90 % of control
T/C (endpoint: mean survival time, dose: 6.25 mg/kg/injection, schedule: Q04DX003 (ip), vehicle: distilled water + Tween-80): 95 % of control
T/C (endpoint: mean survival time, dose: 12.5 mg/kg/injection, schedule: Q04DX003 (ip), vehicle: distilled water + Tween-80): 95 % of control
T/C (endpoint: mean survival time, dose: 25.0 mg/kg/injection, schedule: Q04DX003 (ip), vehicle: distilled water + Tween-80): 93 % of control
T/C (endpoint: mean survival time, dose: 50.0 mg/kg/injection, schedule: Q04DX003 (ip), vehicle: distilled water + Tween-80): 92 % of control
T/C (endpoint: mean survival time, dose: 100.0 mg/kg/injection, schedule: Q04DX003 (ip), vehicle: distilled water + Tween-80): 90 % of control
T/C (endpoint: mean survival time, dose: 200.0 mg/kg/injection, schedule: Q04DX003 (ip), vehicle: distilled water + Tween-80): 90 % of control

CCOC(=O)C(O)(C(=O)OCC)C(C)C
T/C [6]: 94 % of control
T/C [7]: 100 % of control
T/C [8]: 94 % of control

O=C(O)C12CC3CC(CC(C3)C1)C2
T/C [9]: 103 % of control
T/C [10]: 105 % of control
T/C [11]: 102 % of control

N#CC1(Nc2ccccc2)CCCCC1
T/C [3]: 95 % of control
T/C [4]: 102 % of control
T/C [9]: 97 % of control
T/C [10]: 100 % of control

CC1/C(=N/O)C(=O)c2ccccc21 (configuration not stated)
T/C [12]: 102 % of control
T/C (endpoint: mean survival time, dose: 100.0 mg/kg/injection, schedule: Q01DX001 (ip), vehicle: saline with Tween-80): 91 % of control
T/C [6]: 86 % of control
T/C (endpoint: mean survival time, dose: 200.0 mg/kg/injection, schedule: Q01DX001 (ip), vehicle: saline with Tween-80): 97 % of control

CC(=O)N(C)N=Nc1ccc(F)cc1
T/C (endpoint: mean survival time, dose: 25.0 mg/kg/injection, schedule: Q04DX003 (ip), vehicle: Klucel (hydroxypropylcellulose) (HPC)): 105 % of control
T/C (endpoint: mean survival time, dose: 50.0 mg/kg/injection, schedule: Q04DX003 (ip), vehicle: Klucel (hydroxypropylcellulose) (HPC)): 102 % of control
T/C (endpoint: mean survival time, dose: 100.0 mg/kg/injection, schedule: Q04DX003 (ip), vehicle: Klucel (hydroxypropylcellulose) (HPC)): 105 % of control
T/C (endpoint: mean survival time, dose: 200.0 mg/kg/injection, schedule: Q04DX003 (ip), vehicle: Klucel (hydroxypropylcellulose) (HPC)): 105 % of control

CCNc1ncc2ccccc2c1-c1ccc(N2CCN(CCCl)CC2)cc1
T/C (endpoint: mean survival time, dose: 25.0 mg/kg/injection, schedule: Q04DX003 (ip), vehicle: saline + alcohol): 111 % of control
T/C (endpoint: mean survival time, dose: 50.0 mg/kg/injection, schedule: Q04DX003 (ip), vehicle: saline + alcohol): 102 % of control
T/C (endpoint: mean survival time, dose: 100.0 mg/kg/injection, schedule: Q04DX003 (ip), vehicle: saline + alcohol): 102 % of control
T/C (endpoint: mean survival time, dose: 200.0 mg/kg/injection, schedule: Q04DX003 (ip), vehicle: saline + alcohol): 111 % of control

Cc1cc(C)c(C(=O)C(=S)N2CCOCC2)c(C)c1
T/C (endpoint: mean survival time, dose: 100.0 mg/kg/injection, schedule: Q04DX003 (ip), vehicle: acetone): 98 % of control
T/C (endpoint: mean survival time, dose: 200.0 mg/kg/injection, schedule: Q04DX003 (ip), vehicle: acetone): 104 % of control
T/C (endpoint: mean survival time, dose: 400.0 mg/kg/injection, schedule: Q04DX003 (ip), vehicle: acetone): 93 % of control

NC(=O)N(CCCl)N=O
T/C (endpoint: mean survival time, dose: 1.0 mg/kg/injection, schedule: Q01DX007 (ip), vehicle: saline): 292 % of control
T/C (endpoint: mean survival time, dose: 1.0 mg/kg/injection, schedule: Q01DX009 (ip), vehicle: saline): 273 % of control
T/C (endpoint: mean survival time, dose: 1.0 mg/kg/injection, schedule: Q03DX003 (ip), vehicle: saline): 187 % of control
T/C (endpoint: mean survival time, dose: 1.0 mg/kg/injection, schedule: Q04DX003 (ip), vehicle: saline): 188 % of control
T/C (endpoint: mean survival time, dose: 2.0 mg/kg/injection, schedule: Q01DX007 (ip), vehicle: saline): 242 % of control
T/C (endpoint: mean survival time, dose: 2.0 mg/kg/injection, schedule: Q01DX009 (ip), vehicle: saline): 220 % of control
T/C (endpoint: mean survival time, dose: 2.0 mg/kg/injection, schedule: Q03DX003 (ip), vehicle: saline): 286 % of control
T/C (endpoint: mean survival time, dose: 2.0 mg/kg/injection, schedule: Q04DX003 (ip), vehicle: saline): 284 % of control
T/C (endpoint: mean survival time, dose: 4.0 mg/kg/injection, schedule: Q01DX007 (ip), vehicle: saline): 105 % of control
T/C (endpoint: mean survival time, dose: 4.0 mg/kg/injection, schedule: Q01DX009 (ip), vehicle: saline): 101 % of control
T/C (endpoint: mean survival time, dose: 4.0 mg/kg/injection, schedule: Q04DX003 (ip), vehicle: saline): 308 % of control

O=c1c2ccccc2nnn1OCc1ccccc1
T/C (endpoint: mean survival time, dose: 12.5 mg/kg/injection, schedule: Q01DX001 (ip), vehicle: distilled water + Tween-80): 104 % of control
T/C (endpoint: mean survival time, dose: 25.0 mg/kg/injection, schedule: Q01DX001 (ip), vehicle: distilled water + Tween-80): 90 % of control
T/C (endpoint: mean survival time, dose: 50.0 mg/kg/injection, schedule: Q01DX001 (ip), vehicle: distilled water + Tween-80): 92 % of control
T/C (endpoint: mean survival time, dose: 100.0 mg/kg/injection, schedule: Q01DX001 (ip), vehicle: distilled water + Tween-80): 90 % of control
T/C (endpoint: mean survival time, dose: 200.0 mg/kg/injection, schedule: Q01DX001 (ip), vehicle: distilled water + Tween-80): 88 % of control

Nc1ccc2sccc2c1
T/C [9]: 103 % of control
T/C [10]: 102 % of control
T/C [11]: 101 % of control

O=C(C1CCC2(CCCCC2)CC1)n1ccnc1
T/C [1]: 95 % of control
T/C [2]: 89 % of control
T/C [3]: 106 % of control
T/C [4]: 93 % of control
T/C [5]: 97 % of control

CCOC(=O)c1c(OC)cc2n(c1=O)Cc1cc3ccccc3nc1-2
T/C (endpoint: mean survival time, dose: 25.0 mg/kg/injection, schedule: Q01DX009 (ip), vehicle: saline with Tween-80): 98 % of control
T/C [12]: 98 % of control
T/C [6]: 101 % of control
T/C [9]: 90 % of control
